For one assay, the target named is ATM (Homo sapiens (Human), UniProt Q13315). As to the kind of experiment: Caliper mobility shift assay for ATM. The format is biochemical. To be noted: read-out: IC50 of inhibitory activity on ATM kinase. The protocol: 1.2 Determination of the Inhibitory Activities of Compounds on ATM: Caliper Mobility Shift Assay for ATM
To a 96-well plate, 98 μL of DMSO and 2 μL of the 10 mM stock solution were added and mixed evenly so that the concentration of the solution was 200 μM.
Based on the inhibitory rates of the compound at different concentrations, IC50 was calculated according to the formula: Y=Bottom+(Top−Bottom)/(1+(IC50/X)^HillSlope).

Assay [1] deals with Human glioblastoma cell line LN-18. As to the kind of experiment: LN18 cell proliferation combined with radiotherapy (CTG assay).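 On IC50: readout is CTG luminescence proliferation not KAP1 phosphorylation.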 The format is cell-based. To be noted: for IC50: LN18 cells, 1 Gy irradiation 1 h after compound, 6 days, CTG; for inhibitory effect on LN18 cell proliferation, in words: combined with radiotherapy, compared with AZD1390 as positive control. The protocol:
5 Test of the Inhibitory Activities of the Compounds of the Present Disclosure Combined with Radiotherapy on LN18 Cell Proliferation
• Cell: Human glioblastoma cell line LN-18
5.2 Experimental Procedures
• (1) Cell inoculation • 1) The cell culture fluid was preheated at 37° C. • 2) A complete culture medium of LN18 cells was prepared, at a ratio of DMEM medium:FBS=95:5 (V/V). • 3) Cells were digested with trypsin, collected to serve as a cell suspension, and counted, the cell suspension was then added into a 96-well plate at 1500 cells/well and 100 μL of cell fluid/well, and three parallel wells were set. • 4) After inoculated in the plate, the cells were cultured overnight under the condition of 37° C. and 5% CO2. • (2) Compound addition and incubation • 1) AZD1390 and tested compounds, respectively, were sequentially diluted 5 times with DMSO, starting from the concentration of 10 mM and yielding the concentrations of 10, 2, 0.4, 0.08, 0.016, 0.0032, 0.00064, 0.000128, and 0.0000256 mM in turn. The compound solutions at the above concentrations were diluted 5000 times with the complete culture medium. The final 2× concentrations were in order 2000, 400, 80, 16, 3.2, 0.64, 0.128, 0.0256, and 0.00512 nM. The vehicle control was 0.02% DMSO culture fluid. • 2) A complete culture medium containing 100 μL of the compound solution was added to each well, and the final concentrations of the compounds in the wells were in order 1000, 200, 40, 8, 1.6, 0.32, 0.064, 0.0128, and 0.00256 nM. The 0.01% DMSO culture fluid was contained in the vehicle control well. After incubated with compound for 1 h, the cells were irradiated at a dose of 1 Gy. • 3) After irradiation, the plate was put into an incubator and incubated under the condition of 37° C. and 5% CO2 for 6 days. Then detection was performed by adopting CTG assay (100 μL of liquid from each well was sucked out and discarded, and 50 μL of CTG reagent was added to each well, and incubated at room temperature for 30 min, and the luminescence intensity was detected). • (3) Data analysis • 1) The Luminescence signal (RLU) of each well was detected. • 2) Proliferation inhibitory activity was calculated according to the formula: % inhibitory activity=RLUtreatment/RLUAvg(Vehicle)*100. 5.3 the Inhibitory Activities of Compounds of the Present Disclosure Combined with Radiotherapy on LN18 Cell Proliferation

A further assay has as its system ATM-phosphorylated KAP1. Nature of the assay: Intracellular ATM-phosphorylated KAP1 level, ICW assay in MCF7 cells. To be noted: for IC50: MCF7 cells, 2 h compound, 10 Gy irradiation, further 1 h, read-out: pKAP1 IC50; for inhibitory effect on ATM KAP phosphorylation, in words: cellular level, compared with AZD1390 as positive control. The format is cell-based, Human. The protocol: 4 Inhibition on Intracellular ATM-Phosphorylated KAP1 Level by the Compounds of the Present Disclosure: ICW Assay
• Cell: Human breast cancer cell line MCF7 • Materials and reagents:
4.2 Experimental Procedures
• (1) Cell inoculation • MCF7 cells were inoculated on a 384-well plate, 10000 cells/well (25 μL/well), and cultured overnight at 37° C. with 5% CO2. • (2) Activity detection • 1) The compound was formulated into a 100 mM solution with DMSO and then sequentially diluted with a gradient of 1:3 to yield a total of 10 concentration gradients, wherein the maximum concentration was 100 μM. • 2) 25 nL of each of the compound solutions with gradient concentrations prepared in step 1) was added to each well of the cell plate (Corning #356663) by using I-DOT One, resulting in a final concentration of 100 nM (maximum dose). • 3) The cell plate containing compound was incubated at 37° C. with 5% CO2 for 2 h. After 2 h, the cell plate was irradiated with a dose of 10 Gy, and then further incubated for 1 h. • 4) 25 μL of 8% paraformaldehyde was added to each well, followed by incubating at room temperature for 20 min. • 5) The 8% paraformaldehyde was discarded, followed by adding 0.1% TrintonX-100 and incubating at room temperature for 30 min. • 6) Odessey blocking buffer was added at 50 μL/well, followed by incubating at room temperature for 1.5 h. • 7) The Odessey blocking buffer was discarded, and then a primary antibody (Phospho-KAP1, 1:2000 dilution) was added, followed by incubating overnight at 4° C. • 8) The primary antibody was removed, followed by washing with PBS+0.1% Tween 20 for 5 times. • 9) DNA dye DRAQ5 coated with a second antibody (IRDye 800CW Goat anti-Rabbit, 1:4000 dilution) was added, followed by incubating at room temperature for 1 h. • 10) The second antibody was removed, followed by washing with PBS+0.1% Tween 20 for 5 times. • 11) PBS+0.1% Tween 20 was sucked off with Odyssey. • (3) Data analysis • 1) the relative ratio of Channel 800/Channel 700 for each well was detected. • 2) % of KAP1 phosphorylation was calculated according to the following formula:
% of KAP1 phosphorylation=[(Ratiocmpd−(Ratio)Positive)/((Ratio)Vehicle−(Ratio)Positive]*100 • (Ratio)Positive: the mean value of the test values of each positive control well in the test cell plate; • (Ratio)Vehicle: the mean value of the test values of each negative control well in the test cell plate. • 3) the IC50 of each compound was calculated and the dose-effect curve was plotted: % of KAP1 phosphorylation and log of compound's concentration were fit by using Graphpad 8.0 so as to calculate the IC50.
[formula] • X: log of compound's concentration • Y: % of KAP1 phosphorylation

Assay [2] relates to subcutaneous xenograft tumor of human glioblastoma LN-18. Nature of the assay: LN-18 subcutaneous xenograft, combined with radiotherapy. The format is in vivo, NOG mice. To be noted: compound 5 mg/kg intragastric qd × 5 + IR 1 Gy, day 17. The protocol: 9 Efficacy Test of the Compounds of the Present Disclosure Combined with Radiotherapy on Inhibiting the Growth of Subcutaneous Xenograft Tumor of Human Glioblastoma LN-18
9.1 Experimental Animals: NOG Mice, SPF, Female, 18 to 22 g.
LN-18 tumor cells, DMEM medium:fetal bovine serum=95%:5%, accompanied by adding 100 U/mL penicillin and 100 μg/mL streptomycin, 37° C., 5% CO2.
LN18 tumor cells resuspended in serum-free DMEM medium were inoculated subcutaneously in the right costal region of experimental animals at 1.5*10^7/0.15 mL, and the animals were grouped when the tumor grew to 100 to 150 mm^3. Radiotherapy was performed 1 h after administration of compounds.
Tumor volume: The tumor volume was measured twice a week with a vernier caliper, and the long diameter and short diameter of tumor were measured. The tumor volume was calculated as follows: tumor volume (TV)=0.5×long diameter×short diameter^2. Tumor growth inhibitory rate (TGI %) was calculated according to the tumor volume. TVXn represents the mean tumor volume on day n of the treatment group, TVX0 represents the mean tumor volume on day 0 of the treatment group, TVMn represents the mean tumor volume on day n of the control group, and TVM0 represents the mean tumor volume on day 0 of the control group.

Setting [3] is: Homo sapiens, LN-18, light or radiation study.
Where [4] appears, read: Homo sapiens, light or radiation study.

Read-outs that look alike come from different tables or passages of the source. Marks after values point to notes of the source that are not given here.

Eight compounds from patent publication US20240294545A1 (CSPC Zhongqi Pharmaceutical Technology (Shijiazhuang) Co., …, priority 2020, published 2024) can be followed below.

Sequence of ATM (Q13315 whole entry): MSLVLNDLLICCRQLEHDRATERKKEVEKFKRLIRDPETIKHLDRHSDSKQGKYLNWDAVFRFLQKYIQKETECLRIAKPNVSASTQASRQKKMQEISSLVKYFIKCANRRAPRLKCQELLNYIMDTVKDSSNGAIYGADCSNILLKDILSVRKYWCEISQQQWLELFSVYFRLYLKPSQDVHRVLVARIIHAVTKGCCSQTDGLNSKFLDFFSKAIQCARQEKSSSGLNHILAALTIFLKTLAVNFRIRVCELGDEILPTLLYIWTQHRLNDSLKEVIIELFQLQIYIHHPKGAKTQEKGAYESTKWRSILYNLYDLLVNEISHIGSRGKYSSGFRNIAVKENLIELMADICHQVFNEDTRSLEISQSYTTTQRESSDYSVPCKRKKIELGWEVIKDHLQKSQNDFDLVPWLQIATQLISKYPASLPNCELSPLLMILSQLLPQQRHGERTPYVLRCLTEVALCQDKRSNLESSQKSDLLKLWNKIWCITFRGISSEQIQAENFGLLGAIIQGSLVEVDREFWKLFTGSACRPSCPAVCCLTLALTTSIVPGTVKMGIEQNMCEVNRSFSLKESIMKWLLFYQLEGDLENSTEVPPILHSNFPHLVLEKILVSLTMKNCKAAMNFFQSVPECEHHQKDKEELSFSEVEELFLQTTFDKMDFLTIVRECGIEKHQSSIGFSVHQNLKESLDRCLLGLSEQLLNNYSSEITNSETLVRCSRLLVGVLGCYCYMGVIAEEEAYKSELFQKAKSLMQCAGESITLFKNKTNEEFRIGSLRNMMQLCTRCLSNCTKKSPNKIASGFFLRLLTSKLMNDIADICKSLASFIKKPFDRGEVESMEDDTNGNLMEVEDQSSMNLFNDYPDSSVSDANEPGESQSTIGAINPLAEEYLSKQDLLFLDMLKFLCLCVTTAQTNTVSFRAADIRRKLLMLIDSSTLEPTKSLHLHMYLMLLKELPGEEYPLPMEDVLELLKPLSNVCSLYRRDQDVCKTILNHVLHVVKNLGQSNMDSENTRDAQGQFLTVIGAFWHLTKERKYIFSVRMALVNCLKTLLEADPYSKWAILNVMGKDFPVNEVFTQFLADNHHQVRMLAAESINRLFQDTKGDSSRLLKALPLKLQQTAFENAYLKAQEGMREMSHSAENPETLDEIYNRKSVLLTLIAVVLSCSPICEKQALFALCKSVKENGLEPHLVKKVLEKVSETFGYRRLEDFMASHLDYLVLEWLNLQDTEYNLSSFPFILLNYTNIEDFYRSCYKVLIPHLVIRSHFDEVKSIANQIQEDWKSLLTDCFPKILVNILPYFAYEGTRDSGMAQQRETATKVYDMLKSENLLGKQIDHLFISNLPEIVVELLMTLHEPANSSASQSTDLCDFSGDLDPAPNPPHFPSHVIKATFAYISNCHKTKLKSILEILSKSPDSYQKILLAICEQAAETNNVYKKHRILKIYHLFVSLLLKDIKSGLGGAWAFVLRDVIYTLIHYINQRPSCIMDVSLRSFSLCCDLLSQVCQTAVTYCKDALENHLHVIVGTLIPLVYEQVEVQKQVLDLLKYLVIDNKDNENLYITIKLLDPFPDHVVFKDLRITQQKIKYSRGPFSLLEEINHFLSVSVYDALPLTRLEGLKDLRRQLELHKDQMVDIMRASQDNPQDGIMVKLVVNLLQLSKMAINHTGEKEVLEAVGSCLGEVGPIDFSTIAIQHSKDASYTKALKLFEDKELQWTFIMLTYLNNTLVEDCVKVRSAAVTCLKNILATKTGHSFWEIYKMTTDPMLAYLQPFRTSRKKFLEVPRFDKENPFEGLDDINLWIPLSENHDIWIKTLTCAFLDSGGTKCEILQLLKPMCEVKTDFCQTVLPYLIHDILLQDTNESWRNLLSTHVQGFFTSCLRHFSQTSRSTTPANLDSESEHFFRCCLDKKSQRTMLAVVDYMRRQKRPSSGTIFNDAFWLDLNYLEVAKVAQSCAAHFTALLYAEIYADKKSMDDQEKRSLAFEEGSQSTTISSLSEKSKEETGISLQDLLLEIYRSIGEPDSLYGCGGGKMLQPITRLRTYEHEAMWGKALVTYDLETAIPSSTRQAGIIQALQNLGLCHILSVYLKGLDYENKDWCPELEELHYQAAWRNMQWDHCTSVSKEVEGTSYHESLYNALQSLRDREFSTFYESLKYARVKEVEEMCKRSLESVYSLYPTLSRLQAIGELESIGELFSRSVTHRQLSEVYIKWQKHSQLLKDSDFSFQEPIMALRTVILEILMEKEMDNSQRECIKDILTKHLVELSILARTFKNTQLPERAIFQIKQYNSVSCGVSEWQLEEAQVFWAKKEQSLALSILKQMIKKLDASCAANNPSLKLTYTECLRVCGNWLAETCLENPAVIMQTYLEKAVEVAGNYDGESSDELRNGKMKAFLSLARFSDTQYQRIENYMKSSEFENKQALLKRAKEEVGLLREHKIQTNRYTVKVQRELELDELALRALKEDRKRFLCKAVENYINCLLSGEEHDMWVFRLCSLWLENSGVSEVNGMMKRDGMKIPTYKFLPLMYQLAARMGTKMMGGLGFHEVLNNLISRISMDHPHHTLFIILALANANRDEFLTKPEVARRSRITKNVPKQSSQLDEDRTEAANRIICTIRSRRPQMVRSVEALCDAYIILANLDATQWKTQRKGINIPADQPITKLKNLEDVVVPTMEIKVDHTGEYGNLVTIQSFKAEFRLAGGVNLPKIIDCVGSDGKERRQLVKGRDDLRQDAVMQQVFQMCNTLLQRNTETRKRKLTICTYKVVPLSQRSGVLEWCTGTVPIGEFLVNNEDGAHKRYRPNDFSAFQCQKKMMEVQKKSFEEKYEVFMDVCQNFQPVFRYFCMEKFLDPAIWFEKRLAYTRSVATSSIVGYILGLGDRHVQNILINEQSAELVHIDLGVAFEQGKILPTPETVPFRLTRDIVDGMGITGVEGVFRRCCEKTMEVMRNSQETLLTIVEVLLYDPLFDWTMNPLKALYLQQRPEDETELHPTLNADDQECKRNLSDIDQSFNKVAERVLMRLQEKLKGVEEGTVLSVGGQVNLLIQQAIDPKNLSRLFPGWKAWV

Consider `CC1CCN(CCCOc2ccc(-c3ccc4ncc5c6c4c3NC[C@H](C)n6c(=O)n5C)cn2)CC1` [Example A-211, (S)-2,10-dimethyl-7-(6-(3-(4-methylpiperidin-1-yl)propoxy)pyridin-3-yl)-2,8,9,10-tetrahydro-1H-2,4,8,10a-tetraazanaphtho[2,1,8-cde]azulen-1(2H)-one], for which the IC50 on ATM worked out at 0.33 nM. Besides, in assay [1], the IC50 came to 2.71 nM and the “inhibitory effect on LN18 cell proliferation, in words” value was “higher than that of AZD1390”. Also, in the assay with ATM-phosphorylated KAP1, the IC50 worked out at 0.33 nM and the “inhibitory effect on ATM KAP phosphorylation, in words” value is on record as “higher than that of AZD1390”.

Regarding `CC[C@H]1CNc2c(-c3ccc(OCCCN4CCCCC4)nc3)ccc3ncc4c(c23)n1c(=O)n4C` [Example A-203, (S)-10-ethyl-2-methyl-7-(6-(3-(piperidin-1-yl)propoxy)pyridin-3-yl)-2,8,9,10-tetrahydro-1H-2,4,8,10a-tetraazanaphtho[2,1,8-cde]azulen-1(2H)-one], the IC50 at ATM is 0.54 nM; in assay [1], 5.66 nM; in the assay on ATM-phosphorylated KAP1, 0.83 nM. Besides, the “D 17 TGI” value in assay [2] is given as 71.4%. The “D 17 TV (MEAN ± SD)” value in assay [2] is 396 ± 121*** mm^3.

`C[C@H]1CNc2c(-c3ccc(OCCCN4CCC(C)(C)CC4)nc3)ccc3ncc4c(c23)n1c(=O)n4C` [Example A-212, (S)-7-(6-(3-(4,4-dimethylpiperidin-1-yl)propoxy)pyridin-3-yl)-2,10-dimethyl-2,8,9,10-tetrahydro-1H-2,4,8,10a-tetraazanaphtho[2,1,8-cde]azulen-1(2H)-one]: on ATM, the IC50 was found to be 0.37 nM. In assay [1], the IC50 is 1.48 nM and the “inhibitory effect on LN18 cell proliferation, in words” value was “higher than that of AZD1390”. Further, in the assay on ATM-phosphorylated KAP1, the IC50 amounted to 0.37 nM and the “inhibitory effect on ATM KAP phosphorylation, in words” value was “higher than that of AZD1390”.

For `C[C@H]1COc2c(-c3ccc(OCCCN4CCC5(CC4)CC5)nc3)ccc3ncc4c(c23)n1c(=O)n4C` [Example A-183, (S)-7-(6-(3-(6-azaspiro[2.5]octan-6-yl)propoxy)pyridin-3-yl)-2,10-dimethyl-9,10-dihydro-8-oxa-2,4,10a-triazanaphtho[2,1,8-cde]azulen-1(2H)-one], the figures for the concentration for half-maximal inhibition (IC50) (at ATM; in assay [1] (setting [3]); in the assay on ATM-phosphorylated KAP1 (setting [4])) were 0.23 nM, 1.39 nM and 0.22 nM, respectively. Besides, the “D 17 TGI” value in assay [2] is reported as 85.7%. In assay [2], the “D 17 TV (MEAN ± SD)” value was 269 ± 89***^# mm^3. The “inhibitory effect on LN18 cell proliferation, in words” value in assay [1] was “higher than that of AZD1390”. Also, the “inhibitory effect on ATM KAP phosphorylation, in words” value in the assay on ATM-phosphorylated KAP1 is listed as “higher than that of AZD1390”.

Regarding `Cn1c(=O)n2c3c4c(c(-c5ccc(OCCCN6CCCCC6)nc5)ccc4ncc31)OCC21CC1` [Example A-68, 2-methyl-7-(6-(3-(piperidin-1-yl)propoxy)pyridin-3-yl)-2,9-dihydro-1H-spiro[8-oxa-2,4,10a-triazanaphtho[2,1,8-cde]azulene-10,1′-cyclopropan]-1-one], the values for the IC50 (at ATM; in assay [1] (setting [3]); in the assay on ATM-phosphorylated KAP1 (setting [4])) were 0.37 nM, 6.83 nM and 0.9 nM, respectively. Also, the “D 17 TGI” value in assay [2] is given as 83.9%. The “D 17 TV (MEAN ± SD)” value in assay [2] was 285 ± 61***^# mm^3.

Consider `C[C@H]1COc2c(-c3ccc(OCCCN4CCC5(CC4)COC5)nc3)ccc3ncc4c(c23)n1c(=O)n4C` [Example A-184, (S)-7-(6-(3-(2-oxa-7-azaspiro[3.5]nonan-7-yl)propoxy)pyridin-3-yl)-2,10-dimethyl-9,10-dihydro-8-oxa-2,4,10a-triazanaphtho[2,1,8-cde]azulen-1(2H)-one], for which the figures for the IC50 (at ATM; in assay [1] (setting [3]); with ATM-phosphorylated KAP1 (setting [4])) were 0.25 nM, 3.84 nM and 0.33 nM, respectively. In the assay on ATM-phosphorylated KAP1, the “inhibitory effect on ATM KAP phosphorylation, in words” value is recorded as “higher than that of AZD1390”.

As for `C[C@H]1CNc2c(-c3ccc(OCCCN4CCCCC4)nc3)ccc3ncc4c(c23)n1c(=O)n4C` [Example A-198, (S)-2,10-dimethyl-7-(6-(3-(piperidin-1-yl)propoxy)pyridin-3-yl)-2,8,9,10-tetrahydro-1H-2,4,8,10a-tetraazanaphtho[2,1,8-cde]azulen-1(2H)-one], the values for the IC50 (on ATM; in assay [1]; in the assay with ATM-phosphorylated KAP1) were 0.44 nM, 5.93 nM and 0.64 nM, respectively. In addition, the “D 17 TGI” value in assay [2] came out at 79.3%. Also, the “D 17 TV (MEAN ± SD)” value in assay [2] is reported as 326 ± 77***^# mm^3.

On to `C[C@H]1COc2c(-c3ccc(OCCCN4CCCCC4)nc3)ccc3ncc4c(c23)n1c(=O)n4C` [Example A-177, (S)-2,10-dimethyl-7-(6-(3-(piperidin-1-yl)propoxy)pyridin-3-yl)-9,10-dihydro-8-oxa-2,4,10a-triazanaphtho[2,1,8-cde]azulen-1(2H)-one], for which the IC50 turned out to be 0.25 nM at ATM, 5.22 nM in assay [1] (setting [3]) and 0.61 nM in the assay with ATM-phosphorylated KAP1 (setting [4]). In assay [2], the “D 17 TGI” value was 77.9%. Moreover, the “D 17 TV (MEAN ± SD)” value in assay [2] was 338 ± 67***^ mm^3.

One may read the IC50 as the concentration that inhibits the measured activity by half.
